# Measured values from publication PMC10629879 (Frontiers in drug delivery, 2022).
# Tests used:
# [1] = test system: isolated mouse brain microvessels; assay: 125I-insulin surface binding and internalization in isolated brain microvessels with endocytosis inhibitors; assay type: cell-based; details: relative to vehicle; for amount of 125I-insulin internalized, difference vs vehicle (increase): inhibitor 15 min 37°C (monensin 10 μM, p = 0.079 not significant; CPZ 2.8 mM in 20% MeOH, p = 0.018), then 125I-insulin 15 min 37°C, cytoplasmic + membrane fraction; for microvessel surface binding of 125I-insulin, difference vs vehicle (increase): ~90 μg protein, inhibitor 15 min 37°C (monensin 10 μM; CPZ 2.8 mM in 20% MeOH), then 125I-insulin 400,000 CPM 15 min 37°C, acid-wash reversible binding, gamma counter, 2-3 biological replicates
# Description: Whole brains were pooled and homogenized in chilled isolation buffer (DMEM, 25 mM HEPES, pH 7.4, 1% (w/v) dextran and 0.5% BSA) with a Dounce homogenizer. A range of 8–20 brains were pooled each experimental day. The homogenate was poured once through a 300 μm mesh, then twice through a 100 μm mesh. The filtrate was combined with an equivalent volume of chilled 40% dextran in isolation buffer and centrifuged at 3000 g for 30 min at 4°C. The pellet was resuspended in 1 ml of isolation buffer and pipetted twice through a 20 μm pluriStrainer® mesh (pluriSelect Life Science, Leipzig, Germany), before a final rinse with isolation buffer. […] The pellet was resuspended in 1 ml of PBS and spun at 500 g for 3 min at 4°C three times.
# Briefly, the suspended pellet was evenly split between treatment groups, with two technical replicates per group. On average, each binding assay involved approximately 90 μg protein from the isolated microvessels in 40–45 μL. Each study was repeated with separate isolated microvessels for 2-3 biological replicates per study. Microvessels were treated with vehicle or an endocytosis inhibitor. Inhibitors were made up in incubation buffer and/or MeOH. Final concentrations for inhibitors include: monensin (10 μM), CPZ (2.8 mM in 20% MeOH), and filipin III (2 μg/ml in 0.2% MeOH) with respective vehicle MeOH controls. […] Samples were centrifuged at 10,000 g for 2 min at 4°C, and the supernatants were collected. The pellets were resuspended in incubation buffer, centrifuged at 4,225 g for 2 min at 4°C, and the supernatants were combined with the previous ones. The radioactivity in the pellets and combined supernatants were measured in a gamma counter (Wizard^2, PerkinElmer). In order to determine the amount of substrate bound to the cell surface, the pellet was resuspended in 400 μL of chilled acid wash buffer (0.2 M glycine, 0.15 M NaCl) to strip the surface of reversibly bound substrates on ice for 6 min, centrifuged at 4,225 g for 2 min at 4°C. The supernatant was collected and measured in a gamma counter as before to determine the amount of reversible binding (RB) at the plasma membrane, which we have called surface binding. To determine the amount of substrate internalized, the pellet was resuspended in 400 μL of chilled 1% BSA in deionized water and incubated for 1 h on ice to lyse the cells. The sample was centrifuged as before, the supernatant was collected, and the pellet was suspended again in 1% BSA and incubated on ice for 30 min. The sample was centrifuged, the supernatant was combined with the previous one, and both supernatant and pellet were measured in a gamma counter. […]
# Percentages were calculated by dividing the measurement of interest (surface binding or internalization) by the total counts present in the sample and multiplying by 100. […]
# [2] = test system: blood-brain barrier; assay: In situ brain perfusion: 125I-insulin BBB transport (Ki) and vascular binding (Vi) after inhibitor pre-perfusion; assay type: in vivo, mouse; details: for effect on 125I-insulin transport (Ki) or vascular binding (Vi) (in words): whole brain or olfactory bulb
# Description: Following anesthesia, the thoracic cavity was opened and the descending thoracic aorta was clamped and jugular veins were cut to allow blood to drain from the brain vascular space. A 26-gauge butterfly needle was inserted into the left ventricle of the heart and mice were pre-perfused with vehicle or inhibitor at a rate of 2 ml/min. Mice were perfused with vehicle (1% MeOH in Zlokovic buffer: 7.19 g/L NaCl, 0.3 g/L KCl, 0.28 g/L CaCl2, 2.1 g/L NaHCO3, 0.16 g/L KH2PO4, 0.17 g/L anhydrous MgCl2, 0.99 g/L D-glucose and 1% BSA) ± 5 μM monensin or 2 μg/ml filipin III. […] Mice were perfused for timepoints ranging from 0.5 to 5 min. Whole brains, olfactory bulbs, and the hypothalamus were collected, weighed, and measured for radioactivity in a gamma counter. Brain/perfusate ratios (μL/g) were calculated by dividing the cpm per Gram of tissue by the cpm per μL of perfusate and plotted against perfusion time.
# Regression analysis and other statistical analyses were performed using Prism 8.0 (GraphPad Software Inc., San Diego, CA, United States). For microvessel binding assays, the means are reported with their standard error terms and compared by a Student’s t test was. p values less than 0.05 were considered statistically significant. For in situ brain perfusion studies, linear regressions were performed on the brain/serum or brain/perfusate ratios using GraphPad Prism software. Linear regression lines were compared statistically with the Prism 8.0 software package. They are reported with their correlation coefficients (r) and linear regression p values.
# [3] = molecular target: T1, insulin receptor (Mus musculus, UniProt P15208); assay: In vivo regional 125I-S961 binding at the BBB after IV monensin pre-treatment; details: 30 min IV pre-treatment, 100 μL of 50 μM monensin in 10% MeOH in 0.1% BSA/LR; 125I-S961 circulated 5 min; olfactory bulb and 10 brain regions; two-way ANOVA treatment p = 0.0008, no post hoc differences; n = 6/group
# T1 construct: from tissue; host or cells: living mouse; brain vasculature (olfactory bulb and 10 dissected brain regions)
# T1 sequence (P15208 28-748 limits assumed): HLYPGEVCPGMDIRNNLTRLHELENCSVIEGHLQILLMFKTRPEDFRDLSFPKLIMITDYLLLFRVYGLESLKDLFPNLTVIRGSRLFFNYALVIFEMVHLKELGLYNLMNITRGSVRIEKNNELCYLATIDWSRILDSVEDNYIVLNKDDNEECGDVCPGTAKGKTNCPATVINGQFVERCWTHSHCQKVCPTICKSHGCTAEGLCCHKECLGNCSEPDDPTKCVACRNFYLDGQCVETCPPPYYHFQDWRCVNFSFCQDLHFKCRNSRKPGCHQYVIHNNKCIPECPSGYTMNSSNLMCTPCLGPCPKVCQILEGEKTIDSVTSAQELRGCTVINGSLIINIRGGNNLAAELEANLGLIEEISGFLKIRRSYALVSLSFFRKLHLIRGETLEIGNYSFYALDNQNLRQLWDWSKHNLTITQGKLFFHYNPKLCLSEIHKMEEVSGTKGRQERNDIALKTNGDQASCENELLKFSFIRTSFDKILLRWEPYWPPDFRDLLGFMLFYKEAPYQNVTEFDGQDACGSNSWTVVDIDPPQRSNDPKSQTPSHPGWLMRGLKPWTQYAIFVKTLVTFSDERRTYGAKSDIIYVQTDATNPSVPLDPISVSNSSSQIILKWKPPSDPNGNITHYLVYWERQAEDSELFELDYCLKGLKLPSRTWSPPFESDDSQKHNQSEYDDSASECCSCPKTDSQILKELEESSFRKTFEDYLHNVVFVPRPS
# T1 sequence (P15208 753-1372 partner limits assumed): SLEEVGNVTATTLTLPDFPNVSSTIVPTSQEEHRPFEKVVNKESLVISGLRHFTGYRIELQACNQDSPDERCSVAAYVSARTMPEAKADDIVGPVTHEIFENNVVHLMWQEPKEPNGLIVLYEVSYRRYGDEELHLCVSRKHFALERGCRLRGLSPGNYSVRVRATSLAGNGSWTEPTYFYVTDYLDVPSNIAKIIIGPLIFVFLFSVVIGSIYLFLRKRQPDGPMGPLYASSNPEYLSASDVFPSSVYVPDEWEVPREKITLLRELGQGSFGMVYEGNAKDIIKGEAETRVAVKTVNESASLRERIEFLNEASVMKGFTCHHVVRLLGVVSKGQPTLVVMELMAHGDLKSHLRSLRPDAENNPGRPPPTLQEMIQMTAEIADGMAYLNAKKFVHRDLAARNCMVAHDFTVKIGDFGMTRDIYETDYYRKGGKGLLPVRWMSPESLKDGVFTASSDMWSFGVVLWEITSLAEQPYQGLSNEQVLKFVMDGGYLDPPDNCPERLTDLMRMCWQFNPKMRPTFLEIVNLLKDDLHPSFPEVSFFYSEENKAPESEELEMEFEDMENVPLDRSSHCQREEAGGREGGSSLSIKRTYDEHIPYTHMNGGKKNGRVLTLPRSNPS
# Description: In anesthetized mice, the jugular vein was exposed and a 100 μL IV injection containing vehicle (10% MeOH in 0.1% BSA/LR) or monensin (50 μM in 10% MeOH in 0.1% BSA/LR) was administered. Thirty min later, a second 100 μL IV injection containing 1 × 10^6 ^125I-[…] was administered and circulated for 5 min. Blood was collected from the descending aorta, the olfactory bulbs and whole brains removed, and whole brains dissected into 10 brain regions according to the method by [Glowinski and Iversen, (1966)]. The amount of radioactivity in each region was counted in a gamma counter (Wizard^2, PerkinElmer) and corrected for the % injected ^125I-[…] (based on injection checks) and divided by the weight of the tissue (g) to get %Inj/g levels.
# [4] = test system: blood-brain barrier; assay type: in vivo, mouse; details: 50 μM monensin IV pre-treatment 30 min vs vehicle
# Description: The reaction started with the addition of 10 μg chloramine-T in 0.25 M PB and terminated 1 min later with addition of 100 μg sodium metabisulfite. ^131I-albumin was labeled was labeled the same way except used 2 mCi ^131I (Perkin-Elmer, Waltham, MA, United States). ^131I-albumin was used as a vascular marker for the ^125I-transferrin multiple-time regression analysis transport studies as previously described ([Rhea et al., 2018]). A Sephadex G-10 column (Sigma-Aldrich) was used to separate labeled peptides and proteins from free iodine. Protein labeling was characterized by 15% trichloroacetic acid (TCA) precipitation. The radioactively labeled substrates we injected were quality-controlled materials, negating the overestimation of free ^125I.
# FIGURE 3 Role of clathrin in transferrin hypothalamic BBB transport.
# [5] = hypothalamus, 2 μg/ml filipin pre-perfusion 10 min
# [6] = olfactory bulb, 2 μg/ml filipin pre-perfusion 10 min
# [7] = whole brain, 2 μg/ml filipin pre-perfusion 10 min
Structure (SMILES),"amount of 125I-insulin internalized, difference vs vehicle (increase) [1]","microvessel surface binding of 125I-insulin, difference vs vehicle (increase) [1]","Vi of 125I-insulin [2, 5]","effect on 125I-insulin transport (Ki) (in words) [2, 5]","Ki of 125I-insulin ([2]; hypothalamus, 2 μg/ml filipin pre-perfusion 10 min, ns, slope did not significantly differ from zero)","Ki of 125I-insulin ([2]; hypothalamus, 2 μg/ml filipin pre-perfusion 10 min, ns, slope did not significantly differ from zero, listed as filipin)","Ki of 125I-insulin [2, 6]","Vi of 125I-insulin [2, 6]",effect on 125I-insulin transport (Ki) or vascular binding (Vi) (in words) ([2]; 2 μg/ml filipin pre-perfusion 10 min),"Ki of 125I-insulin [2, 7]","Vi of 125I-insulin [2, 7]","125I-S961 binding (%Inj/g), effect of pre-treatment (in words) [3]",decrease in hypothalamic BBB transport of 125I-transferrin [4],effect on 125I-insulin transport (Ki) or vascular binding (Vi) (in words) ([2]; 5 μM monensin pre-treatment 10 min)
"CN(C)CCCN1c2ccccc2Sc2ccc(Cl)cc21 [CPZ, chlorpromazine]",76.9%,42.2%,–,–,–,–,–,–,–,–,–,–,–,–
"CCCCC[C@@H](O)[C@H]1C(=O)O[C@H](C)[C@@H](O)/C=C/C=C/C=C/C=C/C=C(\C)[C@@H](O)C[C@H](O)C[C@H](O)C[C@H](O)C[C@H](O)C[C@H](O)C[C@@H]1O [Filipin, Filipin III]",–,–,8.4 ± 2.3 µL/g,does limit transport,0.94 ± 0.66 µL/g/min,0.94 ± 0.43 µL/g/min,3.06 ± 0.93 µL/g/min,2.8 ± 3.0 µL/g,no effect,0.94 ± 0.43 µL/g/min,5.0 ± 1.5 µL/g,–,–,–
CC[C@@]1([C@@H]2O[C@@H]([C@H]3O[C@@](O)(CO)[C@H](C)C[C@@H]3C)C[C@@H]2C)CC[C@H]([C@]2(C)CC[C@]3(C[C@H](O)[C@@H](C)[C@@H]([C@@H](C)[C@@H](OC)[C@H](C)C(=O)O)O3)O2)O1 [Monensin],33.7%,36.3%,–,–,–,–,–,–,–,–,–,significantly increased,80%,no effect
